# System: patients with mild to moderate hypertension
# Assay: Clinical study: LDL cholesterol
# Format: in vivo
# Procedure: The total, HDL, LDL and VLDL cholesterol levels were measured using the procedures described below:
# The low density lipoprotein cholesterol is computed by subtracting from the cholesterol value determined above one-fifth of the triglycerides and the HDL cholesterol value determined above. This LDL computation is valid only if the triglyceride level is less than 400 mg/dL.
compound,measurement,setting,value
"CCCCc1nc(Cl)c(CO)n1Cc1ccc(-c2ccccc2-c2nnn[nH]2)cc1.[K] [Losartan, 2-n-butyl-4-chloro-1-[(2'-(tetrazol-5-yl)-1,1'-biphenyl-4-yl)-methyl]-1H-imidazole-5-methanol potassium salt]","LDL CHOLESTEROL, TREATMENT MEAN","LOS 50, week 12, N 102",123.5 mg/dL
same,"LDL CHOLESTEROL, CHANGE MEAN","LOS 50, week 12, N 102, change from baseline 127.7",-4.2 mg/dL
same,"LDL CHOLESTEROL, TREATMENT MEAN","LOS 50/100, week 12, N 95",117.9 mg/dL
same,"LDL CHOLESTEROL, CHANGE MEAN","LOS 50/100, week 12, N 95, change from baseline 126.3",-8.4 mg/dL
